Assay results as given in patent US20210261570A1, “ANTIBIOTIC RESISTANCE BREAKERS” (KING'S COLLEGE LONDON, priority 2017, published 2021).
In brackets after ≈: the same amount, converted by molar mass. Entries after “also recorded” stand apart in the source; their conditions may differ. Structures can show the parent of a compound that is named as a salt. Where two headings read alike, the source gives them in different places. Each block holds one molecule with its values, some of them ahead of it.

Legend:
S. epidermidis SE1 = assay: MIC, extended Gram-positive panel; assay type: cell-based; details: for MIC: S. epidermidis SE1, in µg/mL
S. aureus SA4 = assay: MIC, extended Gram-positive panel; assay type: cell-based; details: for MIC: S. aureus SA4
S. aureus SA2 = assay type: cell-based; details: for MIC: S. aureus SA2, in µg/mL
S. aureus SA3 = assay: MIC, extended Gram-positive panel; assay type: cell-based; details: for MIC: S. aureus SA3
VRE12201 = assay: MIC, microdilution broth method; assay type: cell-based, E. faecalis
EMRSA16 = assay: MIC, microdilution broth method; assay type: cell-based, Staphylococcus aureus
MSSA9144 = assay: MIC, microdilution broth method; assay type: cell-based, S. aureus
EMRSA15 = assay: MIC, microdilution broth method; assay type: cell-based, Staphylococcus aureus
VSE775 = assay: MIC, microdilution broth method; assay type: cell-based, E. faecalis
S. aureus SA6 = assay: MIC, extended Gram-positive panel; assay type: cell-based; details: for MIC: S. aureus SA6
E. faecium EF2 = assay: MIC, extended Gram-positive panel; assay type: cell-based; details: for MIC: E. faecium EF2, in µg/mL
E. faecalis EF1 = assay: MIC, extended Gram-positive panel; assay type: cell-based; details: for MIC: E. faecalis EF1
S. aureus SA8 = assay: MIC, extended Gram-positive panel; assay type: cell-based; details: for MIC: S. aureus SA8
S. aureus SA9 = assay: MIC, extended Gram-positive panel; assay type: cell-based; details: for MIC: S. aureus SA9
EMRSA 15 strain = assay: Reserpine assay; assay type: cell-based, S. aureus; details: compound at 0.25×MIC with reserpine
Protocol: (§1) A simple plate based method was used as described by Beyer et al. (24). […] Reserpine was added at a final concentration of 10 µg/mL (made up at 40 μg/mL in TSB, 50 μL per well). The bacteria were added at an OD of 0.01 in TSB (100 μL/well). The plate was a normal clear plate as used for MICs. OD was read every 30 minutes for 9 hours (the literature states 7 hours, but this is strain-dependent). Blanks of TSB and water were added to ensure no infections were present.
(§2) The mechanism of inhibition for reserpine involves direct binding to and competitive inhibition of the efflux pump during drug/H^+ antiport. This assay was validated as a method for testing active efflux of fluoroquinolones in Staphylococcus strains by Beyer et al. (24).

MSSA 9144 strain = assay: Reserpine assay; assay type: cell-based, S. aureus; details: compound at 0.25×MIC with reserpine
Protocol: as §1, §2

S. aureus SA7 = assay: MIC, extended Gram-positive panel; assay type: cell-based; details: for MIC: S. aureus SA7
S. aureus SA1 = assay type: cell-based; details: for MIC: S. aureus SA1
S. haemolyticus SH1 = assay: MIC, extended Gram-positive panel; assay type: cell-based; details: for MIC: S. haemolyticus SH1
S. aureus SA10 = assay: MIC, extended Gram-positive panel; assay type: cell-based; details: for MIC: S. aureus SA10, in µg/mL
S. aureus SA5 = assay: MIC, extended Gram-positive panel; assay type: cell-based; details: for MIC: S. aureus SA5
KP13368 = assay: MIC, microdilution broth method; assay type: cell-based; details: in µg/mL
M6 = assay: MIC, microdilution broth method; assay type: cell-based
Ab17978 = assay: MIC, microdilution broth method; assay type: cell-based
PA01 = assay: MIC, microdilution broth method; assay type: cell-based, Pseudomonas aeruginosa
EC12923 = assay: MIC, microdilution broth method; assay type: cell-based
[1] = system: multidrug resistant strains; assay: Reserpine growth assay in several multidrug resistant strains; assay type: cell-based; details: FIG. 27
VRE12204 = assay: MIC, microdilution broth method; assay type: cell-based, E. faecium
AYE = assay: MIC, microdilution broth method; assay type: cell-based, Acinetobacter baumannii; details: Normal (without PMBN), in µg/mL
[2] = EC12923, Normal (without PMBN), in µg/mL

SMILES: CCn1cc(C(=O)O)c(=O)c2cc(F)c(N3CCNCC3)cc21 [NOR]
- MIC (S. epidermidis SE1): 1-4
- MIC (S. aureus SA4): 64 µg/mL (≈ 200 µM)
- MIC (S. aureus SA2): 8-64
- MIC (S. aureus SA3): 64 µg/mL (≈ 200 µM)

- MIC (VRE12201; VRE12201, in µg/mL): 16
- MIC (EMRSA16; EMRSA16): 8 µg/mL (≈ 16.8 µM)
- MIC (MSSA9144): 8 µg/mL (≈ 16.8 µM)
- MIC (EMRSA15; EMRSA15, in µg/mL): 8
- MIC (VSE775; VSE775): 8 µg/mL (≈ 16.8 µM)
SMILES: CCn1cc(C(=O)O)c(=O)c2cc(F)c(N3CCN(Cc4ccc(F)c5ccccc45)CC3)cc21 [ML-77-49]

- MIC (S. aureus SA6): 2 µg/mL (≈ 4.35 µM)
- MIC (S. epidermidis SE1): 1
- MIC (S. aureus SA4): 2 µg/mL (≈ 4.35 µM)
- MIC (E. faecium EF2): 2-4
- MIC (E. faecalis EF1): 4 µg/mL (≈ 8.7 µM)
- MIC (S. aureus SA8): 2 µg/mL (≈ 4.35 µM)
- MIC (S. aureus SA2): 1
- MIC (S. aureus SA9): 2 µg/mL (≈ 4.35 µM)
- MIC (S. aureus SA7): 2 µg/mL (≈ 4.35 µM)
- MIC (S. aureus SA1): 4 µg/mL (≈ 8.7 µM)
- MIC (S. aureus SA10): 2
- MIC (S. aureus SA5): 2 µg/mL (≈ 4.35 µM)
- MIC (S. aureus SA3): 2 µg/mL (≈ 4.35 µM)
SMILES: CCn1cc(C(=O)O)c(=O)c2cc(F)c(N3CCN(Cc4cccc5ccccc45)CC3)cc21 [ML-77-021]
- Fold decrease (S. aureus SA6; SA6, MIC of ML-77-005 vs CIP, of ML-77-021 vs NOR): ≥64
- Fold decrease (S. epidermidis SE1; SE1, MIC of ML-77-005 vs CIP, of ML-77-021 vs NOR): 1-4
- Fold decrease (S. aureus SA4; SA4, MIC of ML-77-005 vs CIP, of ML-77-021 vs NOR): 32
- Fold decrease (E. faecium EF2; EF2, MIC of ML-77-005 vs CIP, of ML-77-021 vs NOR): ≥32
- Fold decrease (E. faecalis EF1; EF1, MIC of ML-77-005 vs CIP, of ML-77-021 vs NOR): ≥32
- Fold decrease (S. aureus SA8; SA8, MIC of ML-77-005 vs CIP, of ML-77-021 vs NOR): 64
- Fold decrease (S. aureus SA2; SA2, MIC of ML-77-005 vs CIP, of ML-77-021 vs NOR): 8-64
- Fold decrease (S. aureus SA9; SA9, MIC of ML-77-005 vs CIP, of ML-77-021 vs NOR): ≥64
- efflux by the strain (reserpine assay) (EMRSA 15 strain): cannot be effluxed
- efflux by the strain (reserpine assay) (EMRSA 15 strain; listed as napthyl-linked norfloxacin): not effluxed
- efflux by the strain (reserpine assay) (MSSA 9144 strain): cannot be effluxed; also recorded: not effluxed
- Fold decrease (S. aureus SA7; SA7, MIC of ML-77-005 vs CIP, of ML-77-021 vs NOR): ≥64
- Fold decrease (S. aureus SA1; SA1, MIC of ML-77-005 vs CIP, of ML-77-021 vs NOR): ≥32
- MIC (S. haemolyticus SH1): 4 µg/mL (≈ 8.7 µM)
- Fold decrease (S. haemolyticus SH1; SH1, MIC of ML-77-005 vs CIP, of ML-77-021 vs NOR): 32
- Fold decrease (S. aureus SA10; SA10, MIC of ML-77-005 vs CIP, of ML-77-021 vs NOR): 64
- Fold decrease (S. aureus SA5; SA5, MIC of ML-77-005 vs CIP, of ML-77-021 vs NOR): ≥64
- Fold decrease (S. aureus SA3; SA3, MIC of ML-77-005 vs CIP, of ML-77-021 vs NOR): 32

- MIC (S. aureus SA6): 2 µg/mL (≈ 4.24 µM)
- MIC (S. aureus SA4): 2 µg/mL (≈ 4.24 µM)
- MIC (E. faecium EF2): 2
- MIC (E. faecalis EF1): 2 µg/mL (≈ 4.24 µM)
- MIC (S. aureus SA8): 2 µg/mL (≈ 4.24 µM)
- MIC (S. aureus SA2): 0.5
- MIC (S. aureus SA9): 2 µg/mL (≈ 4.24 µM)
- MIC (S. aureus SA7): 2 µg/mL (≈ 4.24 µM)
- MIC (S. aureus SA1): 2 µg/mL (≈ 4.24 µM)
- MIC (S. aureus SA10): 2
- MIC (S. aureus SA5): 2 µg/mL (≈ 4.24 µM)
- MIC (S. aureus SA3): 2 µg/mL (≈ 4.24 µM)
SMILES: O=C(O)c1cn(C2CC2)c2cc(N3CCN(Cc4cccc5ccccc45)CC3)c(F)cc2c1=O [ML-77-005]
- MIC (S. haemolyticus SH1): 4 µg/mL (≈ 8.48 µM)

SMILES: O=C(O)c1cn(C2CC2)c2cc(N3CCNCC3)c(F)cc2c1=O [Ciprofloxacin, ciprofloxacin, reference compound]
- MIC (S. epidermidis SE1): 0.5-1

SMILES: Cc1cc(N2CCN(c3c(F)cc4c(=O)c(C(=O)O)cn5c4c3OC[C@@H]5C)CC2)nc(C(C)C)n1 [ML-83-012, (S)-9-fluoro-10-(4-(2-isopropyl-6-methylpyrimidin-4-yl)piperazin-1-yl)-3-methyl-7-oxo-2,3-dihydro-7H-[1,4]oxazino[2,3,4-ij]quinoline-6-carboxylic Acid Hydrochloride]
- MIC (VRE12201; Enterococcus faecalis, Enterococcus (VRE12201)): ≤ 0.125 µg/mL
- MIC (VRE12201; VRE12201, Gram-positive, in µg/mL): 0.5-1
- MIC (KP13368; Gram-negative): 64
- MIC (M6; Klebsiella pneumoniae, Klebsiella pneumoniae (M6)): 16 µg/mL
- MIC (M6; M6, Gram-negative, in µg/mL): 16
- MIC (Ab17978; Acinetobacter baumannii, Acinetobacter baumannii (AB17978)): 8 µg/mL
- MIC (EMRSA16; EMRSA16, Gram-positive): 16 µg/mL
- MIC (EMRSA16; Staphylococcus aureus, Staphylococcus aureus (EMRSA16)): 2 µg/mL
- MIC (EMRSA15; EMRSA15, Gram-positive, in µg/mL): 16
- MIC (EMRSA15; Staphylococcus aureus): 2 µg/mL
- MIC (PA01; Pseudomonas aeruginosa, Pseudomonas aeruginosa (PA01)): 32 µg/mL
- MIC (VSE775; Enterococcus faecalis): 0.5 µg/mL
- MIC (VSE775; VSE775, Gram-positive): 1 µg/mL
- MIC (EC12923; Escherichia coli, Escherichia coli (EC12923)): 4 µg/mL

SMILES: CCn1cc(C(=O)O)c(=O)c2cc(F)c(N3CCNCC3)cc21 [Norfloxacin, norfloxacin, reference compound]
- efflux by the strain (reserpine assay) (EMRSA 15 strain): effluxed
- efflux by the strain (reserpine assay) (MSSA 9144 strain): effluxed

SMILES: Cc1cc(C)nc(N[C@@H]2CCN(c3c(F)cc4c(=O)c(C(=O)O)cn5c4c3OC[C@@H]5C)C2)n1 [KSN-BL7]
- efflux from the bacteria (reserpine growth assay) [1]: reduced efflux

- MIC (VRE12201; VRE12201, in µg/mL): 4
- MIC (M6; M6, in µg/mL): 16-32
- MIC (EMRSA16; EMRSA16): 4 µg/mL (≈ 8.7 µM)
- MIC (MSSA9144): 0.25 µg/mL (≈ 0.544 µM)
- MIC (EMRSA15; EMRSA15, in µg/mL): 4
- MIC (VSE775; VSE775): 4 µg/mL (≈ 8.7 µM)
- MIC (VRE12204): 2 µg/mL (≈ 4.35 µM)
SMILES: CCn1cc(C(=O)O)c(=O)c2cc(F)c(N3CCN(Cc4ccc5ccccc5c4)CC3)cc21 [ML-77-31]

SMILES: C[C@H]1COc2c(N3CCN(c4ccncn4)CC3)c(F)cc3c(=O)c(C(=O)O)cn1c23 [ML-83-001, (S)-9-fluoro-3-methyl-7-oxo-10-(4-(pyrimidin-4-yl)piperazin-1-yl)-2,3-dihydro-7H-[1,4]oxazino[2,3,4-ij]quinoline-6-carboxylic Acid]
- MIC (EC12923; [2]): 1-4

SMILES: C[C@H]1COc2c(N3CCN(c4ccncc4)CC3)c(F)cc3c(=O)c(C(=O)O)cn1c23 [ML-83-019]
- MIC (M6; M6, Normal (without PMBN), in µg/mL): 64
- MIC (Ab17978; Ab17978, Normal (without PMBN)): 64 µg/mL (≈ 151 µM)
- MIC (EC12923; [2]): 32

SMILES: CCn1cc(C(=O)O)c(=O)c2cc(F)c(N3CCN(Cc4cccc5ccccc45)CC3)nc21 [ML-77-025]
- fold potentiation of MIC (EMRSA16; EMRSA16, vs parent fluoroquinolone): 64-128 fold
- fold potentiation of MIC (EMRSA15; EMRSA15, vs parent fluoroquinolone): 64-128 fold

SMILES: C[C@H]1COc2c(N3CCC(n4cccn4)CC3)c(F)cc3c(=O)c(C(=O)O)cn1c23 [ML-83-041, (S)-10-(4-(1H-pyrazol-1-yl)piperidin-1-yl)-9-fluoro-3-methyl-7-oxo-2,3-dihydro-7H-[1,4]oxazino[2,3,4-ij]quinoline-6-carboxylic Acid]
- MIC (KP13368; Normal (without PMBN)): 16-32
- MIC (AYE): 64-128
- MIC (EC12923; [2]): 1-2

- MIC (M6; Klebsiella pneumoniae (M6), read-out: MIC): 0.5 µg/mL (≈ 1.18 µM)
SMILES: C[C@H]1COc2c(N3CC[C@@H](Nc4cnccn4)C3)c(F)cc3c(=O)c(C(=O)O)cn1c23 [KSN-BL1]

SMILES: CCn1cc(C(=O)O)c(=O)c2cc(F)c(N3CCN(Cc4ccc(S(=O)(=O)NCCc5c[nH]c6ccccc56)cc4)CC3)cc21 [ML-77-146]
- MIC +PMBN (M6; M6, +PMBN): 28
- MIC +PMBN (Ab17978; Ab17978, +PMBN): 4
- MIC +PMBN (PA01; PA01, +PMBN): 0.25
